# Key:
# [1] = tested on: HDACs from Hela cell nuclear extract; type: biochemical; details: HeLa cell nuclear extract; tested at 10 μM and 25 μM; FIG. 2B
# Protocol: (§1) FIGS. 2A-2F show measurement of intrinsic and in situ HDACi activities. […] IC50 values were calculated from nonlinear regression plots using GraphPad Prism5 software. […] Recombinant HDAC6 was incubated with each drug at the indicated concentrations. IC50 values were calculated from nonlinear regression plots using GraphPad Prism5 software.
# (§2) HDAC activity assay. In vitro HDAC inhibition was measured by using the HDAC fluorimetric assay/drug discovery Kit (Enzo Life Sciences, BML-AK500) and the HDAC6 fluorometric drug discovery kit (Enzo Life Sciences, BML-AK516) following the manufacturer's protocols and instructions. IC50 values were calculated from nonlinear […] plots using GraphPad Prism5 software.
# (§3) HDAC1 and HDAC2 are enriched in nuclear extracts whereas HDAC6 is a cytosolic enzyme that is the principal modulator of the acetylation status of Hsp90. […] Again, TSA served as the positive control in FIG. 2D.
# human recombinant HDAC6 = biological target: T1, human recombinant HDAC6 (Homo sapiens, UniProt Q9UBN7); test: HDAC6 fluorometric assay, recombinant enzyme; type: biochemical; details: tested at 10 μM and 25 μM; FIG. 2D
# T1 construct: purchased Enzo Life Sciences BML-AK516
# T1 sequence (Q9UBN7 1-1215): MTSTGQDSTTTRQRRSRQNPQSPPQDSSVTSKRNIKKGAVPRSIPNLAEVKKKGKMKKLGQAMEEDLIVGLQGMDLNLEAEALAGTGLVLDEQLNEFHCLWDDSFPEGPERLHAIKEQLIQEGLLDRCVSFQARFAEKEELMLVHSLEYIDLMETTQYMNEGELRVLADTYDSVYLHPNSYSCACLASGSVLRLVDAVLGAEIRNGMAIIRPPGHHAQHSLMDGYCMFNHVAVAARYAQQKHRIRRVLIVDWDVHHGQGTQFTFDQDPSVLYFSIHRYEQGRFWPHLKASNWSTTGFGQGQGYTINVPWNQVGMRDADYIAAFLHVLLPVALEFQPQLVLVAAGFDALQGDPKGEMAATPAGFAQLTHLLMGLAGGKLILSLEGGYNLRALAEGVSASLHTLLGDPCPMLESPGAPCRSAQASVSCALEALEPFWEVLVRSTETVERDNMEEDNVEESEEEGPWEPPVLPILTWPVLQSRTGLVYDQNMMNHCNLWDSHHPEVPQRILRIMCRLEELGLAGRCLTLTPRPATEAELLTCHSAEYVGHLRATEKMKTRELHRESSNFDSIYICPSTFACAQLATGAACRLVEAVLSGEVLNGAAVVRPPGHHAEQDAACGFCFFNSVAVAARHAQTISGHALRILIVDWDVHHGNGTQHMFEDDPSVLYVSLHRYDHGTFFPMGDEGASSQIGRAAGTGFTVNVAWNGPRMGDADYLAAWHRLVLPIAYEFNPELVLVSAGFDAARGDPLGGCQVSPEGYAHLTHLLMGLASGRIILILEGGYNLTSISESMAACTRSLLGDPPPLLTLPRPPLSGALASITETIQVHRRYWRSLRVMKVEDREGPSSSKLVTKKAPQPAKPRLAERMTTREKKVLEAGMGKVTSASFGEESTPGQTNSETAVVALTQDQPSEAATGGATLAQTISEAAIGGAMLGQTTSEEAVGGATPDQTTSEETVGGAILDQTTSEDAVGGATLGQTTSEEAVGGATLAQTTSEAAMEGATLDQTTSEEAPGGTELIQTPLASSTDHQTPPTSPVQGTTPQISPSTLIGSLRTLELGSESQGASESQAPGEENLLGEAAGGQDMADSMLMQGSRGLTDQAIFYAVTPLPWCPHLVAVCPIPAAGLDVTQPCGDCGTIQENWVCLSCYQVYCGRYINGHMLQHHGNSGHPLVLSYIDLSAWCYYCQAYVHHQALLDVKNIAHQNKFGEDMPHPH
# Protocol: as §1, §2, §3
# [2] = tested on: KLK3 mRNA (AR target gene) in C4-2 cells; test: Inhibition of R1881 activation of KLK3 mRNA in C4-2 cells; type: cell-based; details: hormone depleted 96 h, R1881 1 nM, compound 1-10 μM, 48 h, FIG. 3A
# Protocol: (§4) Cell Culture and Reagents. LNCaP and 22Rv1 cell lines were from American Type Culture Collection (Manassas, Va.). C4-2 cells were kindly provided by Dr. Edwin Sanchez (University of Toledo). […] R1881 was kindly provided by Dr. Stephan Patrick (Karmanos Cancer Institute). All experiments were conducted using phenol-red free growth media.
# (§5) RNA isolation, Reverse Transcription, and Real Time PCR. Total RNA was isolated from cells using the RNeasy Mini Kit (Qiagen). Reverse transcription PCR was then performed using 500 ng of total RNA with random primers and using the high-capacity complementary DNA Archive kit (Applied Biosystems). The complementary DNA from this reaction was measured using quantitative real time PCR using the StepONE Plus Real Time PCR system (Life Technologies Corporation, Carlsbad, Calif.). All reactions were performed in triplicate and normalized to glyceraldehyde-3-phosphate-dehydrogenase values in the same samples.
# [3] = tested on: TMPRSS2 mRNA (AR target gene) in C4-2 cells; test: Inhibition of R1881 activation of TMPRSS2 mRNA in C4-2 cells; type: cell-based; details: hormone depleted 96 h, R1881 1 nM, compound 1-10 μM, 48 h, FIG. 3B
# Protocol: as §4, §5
# DLC1 mRNA in LNCaP cells = test: In situ HDACi activity: DLC1 mRNA in LNCaP cells; type: cell-based; details: 10 μM, 48 h, normalized to GAPDH mRNA, FIG. 2E
# Protocol: (§6) FIGS. 2A-2F show measurement of intrinsic and in situ HDACi activities. […]. IC50 values were calculated from nonlinear regression plots using GraphPad Prism5 software. (2B) Enz, 1002 and 3-52 were tested against HeLa cell nuclear extract at 10 μM and 25 μM and TSA (1 μM) was used as positive control. […] Recombinant HDAC6 was incubated with each drug at the indicated concentrations. IC50 values were calculated from nonlinear regression plots using GraphPad Prism5 software. (2D) Enz, 1002 and 3-52 were tested against recombinant HDAC6 at 10 μM and 25 μM and TSA (1 μM) was used as positive control. […]
# (§7) Cell Culture and Reagents. LNCaP and 22Rv1 cell lines were from American Type Culture Collection (Manassas, Va.). C4-2 cells were kindly provided by Dr. Edwin Sanchez (University of Toledo). LNCaP and C4-2 cells were routinely grown at 37° C. in 5% CO2 in RPMI 1640 medium supplemented with 10% FBS (Invitrogen); 100 units/ml penicillin, 100 μg/ml streptomycin, 2 mM L-glutamine mixture (Invitrogen); and sodium pyruvate (1 mM) (Invitrogen). 22Rv1 cells were grown in RPMI 1640 medium supplemented with 10% FBS (Invitrogen); 100 units/ml penicillin, 100 μg/ml streptomycin, 2 mM L-glutamine mixture (Invitrogen). Affinity-purified rabbit anti-human antibody to AR (sc-816) and mouse anti-human antibody to GAPDH (sc-47724) were purchased from Santa Cruz Biotechnology (Santa Cruz, Calif.). Affinity-purified rabbit anti-human antibody to Hsp90 (C45G5) #4877 and rabbit anti-human antibody to acetylated lysine #9441 were purchased from Cell Signaling Technology. R1881 was kindly provided by Dr. Stephan Patrick (Karmanos Cancer Institute). All experiments were conducted using phenol-red free growth media. For hormone depletion, cells were grown in phenol-red free RPMI 1640 medium supplemented with 10% charcoal stripped FBS (Sigma-Aldrich) which was heat inactivated at 56° C. for thirty minutes, and a mixture of 100 units/ml penicillin, 100 μg/ml streptomycin and 2 mM L-glutamine for 96 h.
# as §5, with “samples. All primers and Taqman probes were purchased from the applied Biosystems inventory (Invitrogen) (Patki et al., 2015).” for “samples.”
# . […]
# DLC1 mRNA in C4-2 cells = test: In situ HDACi activity: DLC1 mRNA in C4-2 cells; type: cell-based; details: 48 h, normalized to GAPDH mRNA, FIG. 2F
# Protocol: as §6, §7
# as §5, with “samples. All primers and Taqman probes were purchased from the applied Biosystems inventory (Invitrogen) (Patki et al., 2015).” for “samples.”
# . […]
# C4-2 cells = test: MTT cell viability assay, C4-2 cells; type: cell-based; details: C4-2 cells; 5 μM; MTT Day 3 relative to Day 0; FIG. 6C
# Protocol: (6A) C4-2 cells were seeded in 96-well plates and 24 h later, they were treated with the indicated compounds (0.1 μM-10 μM) or with vehicle (DMSO). Cell viability was measured by the MTT assay on Days 0 and 3 of treatment. EC50 values were calculated from nonlinear regression plots using GraphPad Prism5 software. […] Cell viability was measured by the MTT assay on Days 0 and 3 of treatment. […] Cell viability was measured by the MTT assay on Days 0 and 3 of treatment. […] (6D) 22Rv1 cells were infected with AR shRNA lentivirus, or control shRNA. 72 h after infection, cells were plated and viable cells were measured by the MTT assay on the indicated days (6D, bottom). Cells were also harvested for western blot analysis and probed with antibody to AR, which was also reactive with the AR splice variant AR-V7 (6D, top). (6E) 22Rv1 cells were seeded in 96-well plates and 24 h later, they were treated with the indicated compounds (0.1 μM-10 μM) or with vehicle (DMSO). Cell viability was measured by the MTT assay on Days 0 and 3 of treatment. EC50 values were calculated from nonlinear regression plots using GraphPad Prism5 software.
# Cell Proliferation Assay. Cells were trypsinized and 6000 cells/well were seeded in 96-well plates coated with poly-D-lysine. The cells were seeded in phenol red-free medium supplemented with 10% FBS, 100 units/ml penicillin, 100 μg/ml streptomycin, 2 mM L-glutamine mixture and sodium pyruvate (1 mM) for C4-2 cells and phenol red-free medium supplemented with 10% FBS, 100 units/ml penicillin, 100 μg/ml streptomycin and 2 mM L-glutamine mixture for 22Rv1 cells. The cells were grown at 37° C. in 5% CO2. Twenty four hours after seeding in the 96-well plates, the cells were treated with indicated compound or DMSO (vehicle). The culture medium was not changed during the time course of the assay. On Day zero and on Day 3, cell viability was determined using the MTT assay. MTT (10 μL, 5 mg/mL) was added to each well and incubated for 2 h at 37° C. The formazan crystal sediments were dissolved in 100 μL of DMSO, and the absorbance at 570 nm was measured using the BioTek Synergy 2 Microplate Reader (BioTek, Winooski, Vt.). […] IC50 values were calculated from nonlinear […] plots using GraphPad Prism5 software.
# p21 mRNA in C4-2 cells = test: p21 mRNA induction in C4-2 cells; details: 48 h, FIG. 5B
# p21 mRNA in LNCaP cells = test: p21 mRNA induction in LNCaP cells; details: 10 μM, 48 h, FIG. 5A
# [4] = tested on: AR chromatin association at KLK3 ARE enhancer elements; test: ChIP of AR at KLK3 enhancer in C4-2 cells; details: compound 10 μM, R1881 1 nM or 10 nM, 2 h, FIG. 3C
# Protocol: (3C) C4-2 cells plated in hormone-depleted medium were treated with either vehicle, R1881, or the indicated compound for 2 h. Cells were harvested and subjected to ChIP using AR antibody. Taqman probes targeting ARE enhancer elements associated with the KLK3 gene were used to quantify the immunoprecipitated chromatin.
# Chromatin Immunoprecipitation (ChIP). […] The ChIP signals were measured by quantitative real time PCR analysis of the immunoprecipitated products.
# As a target site for the ChIP assay, the well-established AR binding enhancer elements located 4 kb upstream of the transcription initiation site of the KLK3 gene was chosen.
# Hsp90 = test: Western blot of Hsp90 protein in C4-2 cells; details: 1 μM to 10 μM, 24 h, relative to GAPDH, FIG. 4B
# Protocol: (§8) Cells were then harvested for western blot analysis using antibody to AR (4A), HSP90 (4B), Acetyl-Lysine (4C) or GAPDH (loading control). ImageJ software was used to determine the intensities of the bands relative to the vehicle control for each protein. The values were then divided by the values for GAPDH within the same samples.
# (§9) Western Blot Analysis. Cells were washed once with phosphate buffered saline (PBS) and then lysed with RIPA buffer (150 mM NaCl, 1% Nonidet P-40, 0.5% sodium deoxycholate, 0.1% SDS, 50 mM Tris of pH 8.0) containing a protease inhibitor cocktail (Pierce, Thermo Fisher Scientific). The cell lysates were then incubated on ice for 40 minutes. Total protein concentrations were estimated using the Bradford Assay (Bio-Rad). Protein samples (10-40 ug) were heated at 95° C. for 5 minutes and resolved by electrophoresis on 8% polyacrylamide-SDS gels and electrophoretically transferred to PVDF membranes (Millipore, Billerica, Mass.). The membranes were then probed overnight at 4° C. with the appropriate primary antibody followed by the appropriate horseradish peroxidase-conjugated secondary antibody.
# [5] = tested on: 55 KDa polypeptide (putative Hsp90 fragment); test: Western blot of acetylated lysine in C4-2 cells; details: 24 h, acetylated lysine antibody, FIG. 4C
# Protocol: as §8, §9
SMILES,inhibition of nuclear HDAC activity [1],inhibitory activity against HDAC6 (human recombinant HDAC6),inhibition of activation of KLK3 by R1881 [2],inhibition of activation of TMPRSS2 by R1881 [3],DLC1 mRNA expression (DLC1 mRNA in LNCaP cells),DLC1 mRNA expression (DLC1 mRNA in C4-2 cells),cell death (viable cells below the number on Day 0) (C4-2 cells),p21 mRNA expression (p21 mRNA in C4-2 cells),p21 mRNA expression (p21 mRNA in LNCaP cells),chromatin association of AR (ChIP signal) [4],Hsp90 protein level (degradation) (Hsp90),hyper-acetylation of a 55 KDa polypeptide [5]
"COC(=O)CCCCCCNC(=O)c1ccc(N2C(=S)N(c3ccc(C#N)c(C(F)(F)F)c3)C(=O)C2(C)C)cc1F [Compound 3-52, Methyl-7-(4-(3-(4-cyano-3-(trifluoromethyl)phenyl)-5,5-dimethyl-4-oxo-2-thioxoimidazolidin-1-yl)-2-fluorobenzamido)heptanoate]",did not inhibit nuclear HDAC activity even up to a concentration of 25 μM,did not show significant inhibitory activity,comparable to Enz,comparable to Enz,–,–,–,–,–,–,–,–
"O=C(CCCCCCC(=O)Nc1ccccc1)NO [SAHA, suberanilohydroxamic acid, reference compound]",–,–,–,–,strongly up-regulated,strongly up-regulated,caused cell death,induced p21 mRNA,induced p21 mRNA,basal ChIP signal,a decrease in Hsp90 was evident at the higher doses,hyper-acetylation of a 55 KDa polypeptide
"C[C@]1(O)CC[C@H]2[C@@H]3CCC4=CC(=O)CCC4=C3C=C[C@@]21C [androgen, R1881]",–,–,–,–,–,–,–,–,–,strongly stimulated chromatin association of AR,–,–
